# Test results taken from patent publication US8835472B2, “Compounds, pharmaceutical compositions and uses thereof” (Boehringer Ingelheim International GmbH, priority 2010, dated 2014).
# Target: human ACC2 (Homo sapiens (Human), UniProt O00763)
# Test: ACC2 assay, spectrophotometric 384 well assay (NADH-linked, coupled lactate dehydrogenase/pyruvate kinase reaction)
# Type: biochemical
# Settings: hACC2 construct lacking the 128 N-terminal amino acids; 25° C., 340 nm over 15 minutes
# Procedure: Spectrophotometric 384 Well Assay
# Malonyl CoA formation by acetyl CoA carboxylases is stoichometrically linked to the consumption of ATP. ACC2 activity is measured in a NADH-linked kinetic method measuring ADP generated during the ACC reaction using a coupled lactate dehydrogenase/pyruvate kinase reaction.
# For biological testing, a human ACC2 construct which lacks the 128 amino acids at the N-terminus for increased solubility (nt 385-6966 in Genbank entry AJ575592) is cloned. The protein is then expressed in insect cells using a baculoviral expression system. Protein purification is performed by anion exchange.
# All compounds are dissolved in dimethyl sulfoxide (DMSO) to a concentration of 10 mM.
# Assay reactions are then carried out in 384-well plates, with hACC2 in an appropriate dilution and at final assay concentrations (f.c.) of 100 mM Tris (pH 7.5), 10 mM trisodium citrate, 25 mM KHCO3, 10 mM MgCl2, 0.5 mg/mL BSA, 3.75 mM reduced L-glutathione, 15 U/mL lactate dehydrogenase, 0.5 mM phosphoenolpyruvate, 15 U/mL pyruvate kinase, compounds at different concentrations at final DMSO concentrations of 1%.
# The enzymatic reaction is then started by addition of a mixture of NADH, acetyl Coenzyme A (both 200 μM f.c.) and ATP (500 uM f.c.). The decrease of the optical density (slope S) is then determined at 25° C. at a wavelength of 340 nm over 15 minutes in a spectrophotometric reader.
# Each assay microtiter plate contains wells with vehicle instead of compound as controls for the non-inhibited enzyme (100% CTL; ‘HIGH’) and wells without acetyl-CoA as controls for non-specific NADH degradation (0% CTL; ‘LOW’).
# The slope S is used for calculation of % CTL=(S(compound)−S(‘LOW’))/(S(‘HIGH’)−S(‘LOW’))*100. Compounds will give values between 100% CTL (no inhibition) and 0% CTL (complete inhibition).
# For IC50 value determination, the sample slope in the presence of the test compound after subtraction of the low controls (S(compound)−S(‘LOW’)) are used. An IC50 value is derived from the compound slopes at different dosages after subtraction of the low controls (S(compound)−S(‘LOW’)) by non-linear regression curve fitting (equation y=(A+((B−A)/(1+((C/x)^D))))).
# Sequence of human ACC2 (O00763 129-2458): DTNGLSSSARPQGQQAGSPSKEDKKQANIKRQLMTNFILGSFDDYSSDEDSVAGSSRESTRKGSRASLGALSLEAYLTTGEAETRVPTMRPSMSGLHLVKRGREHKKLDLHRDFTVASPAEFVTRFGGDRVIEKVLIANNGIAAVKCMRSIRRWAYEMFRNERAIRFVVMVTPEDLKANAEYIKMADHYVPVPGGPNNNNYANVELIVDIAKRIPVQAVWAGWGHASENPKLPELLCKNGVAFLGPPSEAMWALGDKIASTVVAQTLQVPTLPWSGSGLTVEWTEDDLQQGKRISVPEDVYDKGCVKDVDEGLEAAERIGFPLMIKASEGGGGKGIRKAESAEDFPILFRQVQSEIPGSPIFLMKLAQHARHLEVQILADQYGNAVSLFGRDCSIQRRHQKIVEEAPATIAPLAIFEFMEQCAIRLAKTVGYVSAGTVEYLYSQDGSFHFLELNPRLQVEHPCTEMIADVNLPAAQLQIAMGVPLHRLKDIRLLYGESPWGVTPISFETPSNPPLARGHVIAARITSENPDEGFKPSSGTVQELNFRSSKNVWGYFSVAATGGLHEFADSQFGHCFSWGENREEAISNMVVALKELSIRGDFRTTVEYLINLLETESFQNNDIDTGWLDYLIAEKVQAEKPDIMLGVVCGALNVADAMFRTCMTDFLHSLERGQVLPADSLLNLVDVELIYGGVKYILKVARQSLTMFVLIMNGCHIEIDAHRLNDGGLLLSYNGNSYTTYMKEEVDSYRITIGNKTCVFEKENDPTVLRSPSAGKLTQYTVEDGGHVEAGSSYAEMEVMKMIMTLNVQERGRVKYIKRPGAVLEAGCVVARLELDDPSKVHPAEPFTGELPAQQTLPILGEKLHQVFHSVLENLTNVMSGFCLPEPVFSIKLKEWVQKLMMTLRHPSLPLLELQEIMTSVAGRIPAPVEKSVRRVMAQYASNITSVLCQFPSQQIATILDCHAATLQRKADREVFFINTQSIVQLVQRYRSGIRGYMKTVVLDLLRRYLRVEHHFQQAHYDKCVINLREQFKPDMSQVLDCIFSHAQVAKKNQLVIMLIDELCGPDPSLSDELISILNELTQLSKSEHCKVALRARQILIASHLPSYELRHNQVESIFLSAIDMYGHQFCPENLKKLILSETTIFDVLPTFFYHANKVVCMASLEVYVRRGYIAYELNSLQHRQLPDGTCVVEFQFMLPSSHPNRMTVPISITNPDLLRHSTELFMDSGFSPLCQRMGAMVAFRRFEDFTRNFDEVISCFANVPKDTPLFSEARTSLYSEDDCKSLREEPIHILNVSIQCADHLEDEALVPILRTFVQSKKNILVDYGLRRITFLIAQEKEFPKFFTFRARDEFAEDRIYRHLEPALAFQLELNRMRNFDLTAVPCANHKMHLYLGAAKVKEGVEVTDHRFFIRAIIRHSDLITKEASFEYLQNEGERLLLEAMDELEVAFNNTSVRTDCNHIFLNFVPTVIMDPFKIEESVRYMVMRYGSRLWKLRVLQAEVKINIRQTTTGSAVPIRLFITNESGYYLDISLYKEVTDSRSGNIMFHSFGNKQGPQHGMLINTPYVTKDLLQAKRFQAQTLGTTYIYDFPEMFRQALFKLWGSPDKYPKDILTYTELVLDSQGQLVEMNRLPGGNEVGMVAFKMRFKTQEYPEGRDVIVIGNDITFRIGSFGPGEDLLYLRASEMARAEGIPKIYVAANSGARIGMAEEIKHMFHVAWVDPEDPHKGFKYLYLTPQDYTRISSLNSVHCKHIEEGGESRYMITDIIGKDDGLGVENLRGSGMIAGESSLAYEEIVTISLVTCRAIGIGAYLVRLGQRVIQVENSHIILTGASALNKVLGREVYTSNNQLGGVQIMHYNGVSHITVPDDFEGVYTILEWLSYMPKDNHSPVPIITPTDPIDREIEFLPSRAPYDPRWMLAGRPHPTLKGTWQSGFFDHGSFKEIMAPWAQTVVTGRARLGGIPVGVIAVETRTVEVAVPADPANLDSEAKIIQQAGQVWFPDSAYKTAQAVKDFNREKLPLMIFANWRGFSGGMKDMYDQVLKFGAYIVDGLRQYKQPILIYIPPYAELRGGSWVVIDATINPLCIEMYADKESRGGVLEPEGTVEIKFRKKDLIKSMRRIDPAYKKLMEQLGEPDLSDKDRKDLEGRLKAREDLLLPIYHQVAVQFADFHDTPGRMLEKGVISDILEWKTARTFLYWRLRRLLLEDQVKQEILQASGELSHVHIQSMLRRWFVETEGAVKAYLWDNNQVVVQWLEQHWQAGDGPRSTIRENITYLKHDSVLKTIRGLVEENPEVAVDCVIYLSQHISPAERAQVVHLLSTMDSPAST
row,SMILES,IC50 [µM]
1,CC(=O)NC(C)(C)c1ccc(C#Cc2ccnc(OC(C)C)c2)cc1 [Example 2.38],10.1
2,CC(=O)NC(C)(C)c1ccc(C#Cc2ccc(OC(C)C)nc2)cc1 [Example 2.39],21.6
3,CCCOc1ccc(C#Cc2ccc(C(C)(C)NC(C)=O)cc2)c(OC)c1 [Example 2.40],11.8
4,CCCOc1ccc(C#Cc2ccc(C(C)(C)NC(C)=O)cc2)cc1 [Example 2.41],25
5,CC(=O)NC(C)(C)c1ccc(C#Cc2ccc(OC3CCC3)cc2)cc1 [Example 2.42],24.6
6,CC(=O)NC(C)c1ccc(C#Cc2ccc(OC(C)C)nc2)cc1 (stereo not drawn) [Example 2.50],0.9
7,CCCOc1ccc(C#Cc2ccc(C(C)NC(C)=O)cc2)c(OC)c1 (stereo not drawn) [Example 2.51],1.3
8,CCCOc1ccc(C#Cc2ccc(C(C)NC(C)=O)cc2)cn1 (stereo not drawn) [Example 2.54],1.2
9,COc1ccc(C#Cc2ccc(CC(C)NC(=O)C3CC3)cc2)cc1 (stereo not drawn) [Example 2.56],0.96
10,CC(Cc1ccc(C#Cc2ccc(C(C)C)cc2)cc1)NC(=O)C1CC1 (stereo not drawn) [Example 2.57],0.57
11,COc1ncc(C#Cc2ccc(CC(C)NC(=O)C3CC3)cc2)c(OC)n1 (stereo not drawn) [Example 2.58],3.7
12,CC(Cc1ccc(C#Cc2ccc(OC(F)F)cc2)cc1)NC(=O)C1CC1 (stereo not drawn) [Example 2.59],2.1
13,CCOc1cc(C#Cc2ccc(CC(C)NC(=O)C3CC3)cc2)ccn1 (stereo not drawn) [Example 2.60],0.69
14,CC(Cc1ccc(C#Cc2ccc(OC(C)(C)C)cc2)cc1)NC(=O)C1CC1 (stereo not drawn) [Example 2.61],2
15,CC(Cc1ccc(C#Cc2ccc3c(c2)CCO3)cc1)NC(=O)C1CC1 (stereo not drawn) [Example 2.62],0.74
16,CCCc1ccc(C#Cc2ccc(CC(C)NC(=O)C3CC3)cc2)cc1 (stereo not drawn) [Example 2.63],0.46
17,COc1ccc(C#Cc2ccc(CC(C)NC(=O)C3CC3)cc2)cn1 (stereo not drawn) [Example 2.64],2.8
18,CC(Cc1ccc(C#Cc2ccc(OC(C)C)nc2)cc1)NC(=O)C1CC1 (stereo not drawn) [Example 2.65],0.48
19,CC(Cc1ccc(C#Cc2ccc(C3CC3)cn2)cc1)NC(=O)C1CC1 (stereo not drawn) [Example 2.67],7.2
20,COc1cc(C#Cc2ccc(CC(C)NC(=O)C3CC3)cc2)ccn1 (stereo not drawn) [Example 2.69],2
21,CCCOc1ccc(C#Cc2ccc(CC(C)NC(=O)C3CC3)cc2)cn1 (stereo not drawn) [Example 2.70],0.8
22,COc1ccc(C#Cc2ccc(CC(C)NC(=O)C3CC3)cc2)cc1OC (stereo not drawn) [Example 2.71],3.4
23,CC(=O)NC(C)Cc1ccc(C#Cc2cnc3ccccc3c2)cc1 (stereo not drawn) [Example 2.72],0.91
24,CC(=O)NC(C)Cc1ccc(C#Cc2ccc(N3CCOCC3)cc2)cc1 (stereo not drawn) [Example 2.73],0.64
25,CC(=O)NC(C)Cc1ccc(C#Cc2ccc3ncccc3c2)cc1 (stereo not drawn) [Example 2.74],1.1

row,SMILES,IC50 [µM]
1,CC(=O)NC(C)Cc1ccc(C#Cc2ccc3c(c2)CCC3=O)cc1 (stereo not drawn) [Example 2.76],5.8
2,CC(=O)NC(C)Cc1ccc(C#Cc2ccc(Oc3ccccc3)nn2)cc1 (stereo not drawn) [Example 2.77],1.5
3,CC(=O)NC(C)Cc1ccc(C#Cc2cc(OCc3ccccc3)ncn2)cc1 (stereo not drawn) [Example 2.78],0.75
4,CC(=O)NC(C)Cc1ccc(C#Cc2cnn(-c3ccccc3)c2)cc1 (stereo not drawn) [Example 2.79],0.45
5,CC(=O)NC(C)Cc1ccc(C#Cc2ccc(C3CC3)cn2)cc1 (stereo not drawn) [Example 2.80],0.74
6,CC(=O)NC(C)Cc1ccc(C#Cc2cc(C)c3c(c2)oc(=O)n3C)cc1 (stereo not drawn) [Example 2.81],4
7,CC(=O)NC(C)Cc1ccc(C#Cc2ccn(CC(C)C)c(=O)c2)cc1 (stereo not drawn) [Example 2.82],1.6
8,COCCn1ccc(C#Cc2ccc(CC(C)NC(C)=O)cc2)cc1=O (stereo not drawn) [Example 2.83],17.7
9,CC(=O)NC(C)Cc1ccc(C#Cc2ccn(C(C)C)c(=O)c2)cc1 (stereo not drawn) [Example 2.84],5.8
10,CCCCn1ccc(C#Cc2ccc(CC(C)NC(C)=O)cc2)cc1=O (stereo not drawn) [Example 2.85],1.1
11,CC(=O)NC(C)Cc1ccc(C#Cc2ccc(OC(C)C)nn2)cc1 (stereo not drawn) [Example 2.86],0.93
12,CCn1ccc(C#Cc2ccc(CC(C)NC(C)=O)cc2)cc1=O (stereo not drawn) [Example 2.87],12.9
13,CCCCOc1ccc(C#Cc2ccc(CC(C)NC(C)=O)cc2)nn1 (stereo not drawn) [Example 2.88],0.88
14,COCCOc1ccc(C#Cc2ccc(CC(C)NC(C)=O)cc2)nn1 (stereo not drawn) [Example 2.89],16.4
15,CCCOc1ccc(C#Cc2ccc(CC(C)NC(C)=O)cc2)c(C(N)=O)c1 (stereo not drawn) [Example 2.90],5.2
16,CC(=O)NC(C)Cc1ccc(C#Cc2ncc(Cl)cn2)cc1 (stereo not drawn) [Example 2.99],7.4
17,CCOc1cc(C#Cc2ccc(C(C)NC(C)=O)cc2)ccn1 (stereo not drawn) [Example 2.102],0.58
18,CC(=O)NC(C)c1ccc(C#Cc2cccc(OCc3ccccc3)c2)cc1 (stereo not drawn) [Example 2.103],0.5
19,COc1ccc(C#Cc2ccc(C(C)NC(C)=O)cc2)cc1 (stereo not drawn) [Example 2.104],1.5
20,CC(=O)NC(C)c1ccc(C#Cc2cnn(Cc3ccccc3)c2)cc1 (stereo not drawn) [Example 2.105],0.93
21,CC(=O)NC(C)Cc1ccc(C#Cc2c(C)noc2C)cc1 (stereo not drawn) [Example 2.106],8.2
22,CC(=O)NC(C)Cc1ccc(C#Cc2cnn(C)c2)cc1 (stereo not drawn) [Example 2.107],4.9
23,COCc1ccc(C#Cc2ccc(CC(C)NC(C)=O)cc2)cc1 (stereo not drawn) [Example 2.109],0.79
24,COc1cc(C#Cc2ccc(CC(C)NC(C)=O)cc2)ccc1Cl (stereo not drawn) [Example 3.3],1.3

# More lines, now with the values ahead:
row,IC50 [µM],SMILES
1,0.18,CC(=O)NCC(C)(C)c1ccc(C#Cc2cnc(OC3CCC3)nc2)cc1 [Example 2.34]
2,0.13,CCCOc1ccc(C#Cc2ccc(C(C)(C)CNC(C)=O)cc2)cn1 [Example 2.35]
3,0.14,CCCOc1ccc(C#Cc2ccc(C(C)(C)CNC(C)=O)cc2)cc1 [Example 2.36]
4,0.1,CC(=O)NCC(C)(C)c1ccc(C#Cc2ccc(OCC3CC3)cc2)cc1 [Example 2.37]
5,0.45,CC(=O)NC(C)c1ccc(C#Cc2ccc(OC3CCCC3)nc2)cc1 (stereo not drawn) [Example 2.43]
6,0.42,CC(=O)NC(C)c1ccc(C#Cc2ccc(OC(C)(C)C)cc2)cc1 (stereo not drawn) [Example 2.44]
7,0.25,CC(=O)NC(C)c1ccc(C#Cc2ccc3c(c2)CCO3)cc1 (stereo not drawn) [Example 2.45]
8,0.41,CCCc1ccc(C#Cc2ccc(C(C)NC(C)=O)cc2)cc1 (stereo not drawn) [Example 2.46]
9,0.36,CC(=O)NC(C)c1ccc(C#Cc2ccc(OC(C)C)cc2)cc1 (stereo not drawn) [Example 2.47]
10,0.26,CC(=O)NC(C)c1ccc(C#Cc2ccc(OCC(C)C)cc2)cc1 (stereo not drawn) [Example 2.48]
11,0.25,CCCOc1ccc(C#Cc2ccc(C(C)NC(C)=O)cc2)cc1 (stereo not drawn) [Example 2.49]
12,0.19,CC(=O)NC(C)c1ccc(C#Cc2ccc(OC3CCCC3)cc2)cc1 (stereo not drawn) [Example 2.52]
13,0.12,CC(=O)NC(C)c1ccc(C#Cc2ccc(OC3CCC3)cc2)cc1 (stereo not drawn) [Example 2.53]
14,0.07,CC(=O)NC(C)c1ccc(C#Cc2ccc(OC3CC3)cc2)cc1 (stereo not drawn) [Example 2.55]
15,0.23,CC(Cc1ccc(C#Cc2ccc(OC3CCCC3)nc2)cc1)NC(=O)C1CC1 (stereo not drawn) [Example 2.66]
16,0.25,CCCOc1ccc(C#Cc2ccc(CC(C)NC(=O)C3CC3)cc2)c(OC)c1 (stereo not drawn) [Example 2.68]
17,0.1,CC(=O)NC(C)Cc1ccc(C#Cc2ccc(OC(C)(C)C)cc2)cc1 (stereo not drawn) [Example 2.75]
18,0.4,CC(=O)NC(C)Cc1ccc(C#Cc2ccnc(Oc3cncnc3)c2)cc1 (stereo not drawn) [Example 2.91]
19,0.17,CCCOc1ccc(C#Cc2ccc(CC(C)NC(C)=O)cc2)c(C#N)c1 (stereo not drawn) [Example 2.92]
20,0.08,CCCOc1ccc(C#Cc2ccc(CC(C)NC(C)=O)cc2)c(Cl)c1 (stereo not drawn) [Example 2.93]
21,0.26,COc1cc(C#Cc2ccc(CC(C)NC(C)=O)cc2)ccn1 (stereo not drawn) [Example 2.94]
22,0.11,CCCOc1ccc(C#Cc2ccc(CC(C)NC(C)=O)cc2)c(C)c1 (stereo not drawn) [Example 2.95]
23,0.13,CCCCOc1cc(C#Cc2ccc(CC(C)NC(C)=O)cc2)ccn1 (stereo not drawn) [Example 2.96]
24,0.14,CC(=O)NC(C)Cc1ccc(C#Cc2ccnc(OC(C)C)c2)cc1 (stereo not drawn) [Example 2.97]
25,0.15,CC(=O)NC(C)Cc1ccc(C#Cc2ccnc(Oc3ccccc3)c2)cc1 (stereo not drawn) [Example 2.98]
26,0.12,CC(=O)NC(C)Cc1ccc(C#Cc2ccc(OC3CC3)cc2)cc1 (stereo not drawn) [Example 2.100]
27,0.35,CSc1ccc(C#Cc2ccc(C(C)NC(C)=O)cc2)cc1 (stereo not drawn) [Example 2.101]
28,0.3,CC(=O)NC(C)Cc1ccc(C#Cc2cnn(Cc3ccccc3)c2)cc1 (stereo not drawn) [Example 2.108]
29,0.27,CC(=O)NC(C)Cc1ccc(C#Cc2ccc(C)cc2Cl)cc1 (stereo not drawn) [Example 3.2]
